Some test systems named below: A498 renal; M14 melanoma; MOLT-4 leukemia; UACC-257 melanoma; NCI-H522 lung; ACHN renal; OVCAR-8 ovarian; OVCAR-5 ovarian; HT29 colon; MALME-3M melanoma.
Holding throughout (assay): inhibition of tumour cell growth, NCI panel, 48 h

Here are results for 13 molecules from PubChem BioAssay (NCI).

Where “and” joins values, the source holds several entries; their conditions need not be identical. Equal entries are not always repeated.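 Method: 48-hour compound exposure of cells in 96-well plates, five concentrations, linear interpolation of endpoints. GI50: concentration for 50% inhibition of growth. TGI: total growth inhibition.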

In the case of `C[C@]12CC/C(=N\O)C[C@@H]1CC[C@@H]1[C@@H]2CC[C@]2(C)/C(=N/O)CC[C@@H]12`, the GI50 is 47.2 µM with A498 renal; 23.7 µM with M14 melanoma; 64.4 µM in the assay on MOLT-4 leukemia; 37.6 µM in the assay on UACC-257 melanoma; 21 µM in the assay on NCI-H522 lung; 50.1 µM in the assay with ACHN renal. Moreover, the GI50 is 45.2 µM in the assay with OVCAR-8 ovarian, 46.1 µM in the assay with OVCAR-5 ovarian and 42.7 µM with HT29 colon. Moreover, the TGI with A498 renal was over 100 µM; in the assay with M14 melanoma, 55.2 µM; with MOLT-4 leukemia, over 100 µM; in the assay with UACC-257 melanoma, over 100 µM; in the assay on NCI-H522 lung, 58.3 µM; in the assay on ACHN renal, over 100 µM. In addition, the TGI in the assay on OVCAR-8 ovarian, in the assay on OVCAR-5 ovarian and in the assay on HT29 colon was over 100 µM in each case.

Regarding `N#Cc1c(N)n(C2OC(CO)C(O)C2O)c2ncnc(N)c12` (stereo not given), the TGI was 0.265 µM in the assay with M14 melanoma; 0.163 µM in the assay on MOLT-4 leukemia; 0.574 µM in the assay with UACC-257 melanoma; 0.161 µM with MALME-3M melanoma; 0.417 µM in the assay on ACHN renal; 0.279 µM with OVCAR-8 ovarian. Moreover, the results for the TGI in the assay on OVCAR-5 ovarian and with HT29 colon were 3.28 µM and over 100 µM, respectively.

Consider `COc1cc(-c2nn(-c3ccc(NC(=O)Nc4ccc(Cl)c(C(F)(F)F)c4)cc3)cc2-c2ccncc2)ccc1Cl`, for which the GI50 was 1.41 µM in the assay on A498 renal; 1.74 µM in the assay with M14 melanoma; 1.64 µM with UACC-257 melanoma; 2.02 µM with ACHN renal; 2.03 µM in the assay with OVCAR-8 ovarian; 1.94 µM in the assay with OVCAR-5 ovarian. Besides, the TGI with A498 renal was 3.54 µM; with M14 melanoma it was 3.63 µM; in the assay with UACC-257 melanoma, 3.69 µM; in the assay on ACHN renal, 9.71 µM; with OVCAR-8 ovarian, 7.83 µM; in the assay on OVCAR-5 ovarian, 5.68 µM.

With `CN(C)C(=O)C(NCCO)c1ccccc1` (stereo not given), the TGI in the assay on A498 renal, with M14 melanoma, in the assay on MOLT-4 leukemia, with UACC-257 melanoma, with NCI-H522 lung and in the assay on ACHN renal was over 100 µM each time. Besides, the TGI in the assay with OVCAR-8 ovarian, in the assay with OVCAR-5 ovarian and with HT29 colon was over 100 µM in each case.

Turning to `Clc1cc2nc[nH]c2cc1Cl`, the TGI with A498 renal, with M14 melanoma, in the assay on MOLT-4 leukemia, in the assay with MALME-3M melanoma, in the assay on ACHN renal and with OVCAR-8 ovarian was over 100 µM in each case. Moreover, the TGI in the assay with OVCAR-5 ovarian and in the assay with HT29 colon was over 100 µM throughout.

Take `N#CC1=C(c2ccccc2)NN(Cc2ccccc2)C(c2ccc(Cl)cc2)CC1=O` (stereo not given): the TGI with A498 renal is over 100 µM; with MOLT-4 leukemia, over 100 µM; in the assay with UACC-257 melanoma it was over 100 µM; with NCI-H522 lung, 38.5 µM; with ACHN renal, over 100 µM; in the assay with OVCAR-5 ovarian, over 100 µM. In addition, the TGI in the assay with HT29 colon stood at 38.7 µM.

For the molecule `CC1OC(OC23C(=O)CC(C)(O)CC2(O)C=CC2=C3C(=O)c3ccc(C4CC(OC5CCC(OC6CC(O)C(O)C(C)O6)C(C)O5)C(O)C(C)O4)c(O)c3C2=O)CCC1O` (stereo not given), the TGI was 32.3 µM and 26.7 µM with M14 melanoma; over 100 µM in the assay with MOLT-4 leukemia; 31.9 µM and 28.8 µM with UACC-257 melanoma; 3.83 µM and 3.5 µM with NCI-H522 lung; 8.48 µM and 3.49 µM in the assay with MALME-3M melanoma; 31.4 µM and 30.8 µM in the assay with ACHN renal. Further, the TGI was 30.1 µM and 17.6 µM in the assay on OVCAR-8 ovarian; 33.1 µM and 34.9 µM in the assay with OVCAR-5 ovarian; 36.1 µM and 27.8 µM in the assay with HT29 colon. The GI50 in the assay with OVCAR-8 ovarian is 16.5 µM and 5.32 µM.

Consider `COC(=O)c1ccc(CS(=O)(=O)c2ccccc2)cc1`, for which the TGI in the assay on M14 melanoma, in the assay with MOLT-4 leukemia, with UACC-257 melanoma, in the assay on MALME-3M melanoma, in the assay with ACHN renal and in the assay on OVCAR-8 ovarian was over 100 µM in each case. In addition, the TGI in the assay with OVCAR-5 ovarian and in the assay on HT29 colon was over 100 µM each time.

Consider `COc1ccc(-c2c(-c3cc4c(c(OC)c3OC)OCO4)noc2N)cc1`, for which the GI50 was 0.374 µM in the assay with A498 renal; 0.231 µM in the assay with M14 melanoma; 0.621 µM with MOLT-4 leukemia; 0.458 µM in the assay on UACC-257 melanoma; 0.081 µM in the assay on NCI-H522 lung; 1.43 µM in the assay with ACHN renal. The GI50 with OVCAR-8 ovarian is 0.455 µM; in the assay on OVCAR-5 ovarian, 2.43 µM; in the assay with HT29 colon, 0.279 µM. Moreover, the TGI in the assay with A498 renal is over 100 µM; in the assay on M14 melanoma, 3.24 µM; with MOLT-4 leukemia, over 100 µM; in the assay with UACC-257 melanoma it was over 100 µM; in the assay on NCI-H522 lung it was 0.432 µM; with ACHN renal it was over 100 µM. Further, the TGI in the assay with OVCAR-8 ovarian was over 56.1 µM; in the assay on OVCAR-5 ovarian, over 100 µM; in the assay on HT29 colon it was 3.15 µM.

Regarding `O=c1/c(=C/c2ccccc2O)sc2nc3ccccc3n12`, the TGI is over 100 µM in the assay with A498 renal; over 100 µM with M14 melanoma; 43.7 µM in the assay with MOLT-4 leukemia; over 100 µM in the assay with UACC-257 melanoma; over 100 µM with MALME-3M melanoma; over 100 µM with ACHN renal. Also, the TGI with OVCAR-8 ovarian, in the assay on OVCAR-5 ovarian and in the assay on HT29 colon was over 100 µM in each case.

Regarding `CC1=CC[C@@H]2[C@@H](CC[C@@]2(C)O)C(C)(C)[C@H]1CC[C@@H]1[C@@]2(C)CC[C@@H](O)C(C)(C)O[C@@H]2CC[C@]1(C)O`, the TGI in the assay with A498 renal was 29.3 µM; in the assay on M14 melanoma, 61.9 µM; with MOLT-4 leukemia, 47.5 µM; in the assay on UACC-257 melanoma it was 81 µM; in the assay on ACHN renal it was 58.7 µM; in the assay with OVCAR-5 ovarian it was over 100 µM.

For `COc1ccc(C(=C(C#N)C#N)c2ccc(OC)cc2)cc1`, the TGI with A498 renal, in the assay with M14 melanoma, in the assay with MOLT-4 leukemia, in the assay with UACC-257 melanoma, with NCI-H522 lung and with ACHN renal was over 100 µM in each case. Further, the TGI with OVCAR-8 ovarian, with OVCAR-5 ovarian and with HT29 colon was over 100 µM in each case.

On to `CCOC(=O)NC(=O)c1cn(CC(=O)NCC(=O)NCC(=O)N2CCN(CCn3c(C)nc(C(N)=O)c3N)CC2)c(=O)[nH]c1=O`, for which the TGI in the assay with A498 renal, in the assay with M14 melanoma, in the assay on MOLT-4 leukemia, in the assay on UACC-257 melanoma, in the assay with MALME-3M melanoma and with ACHN renal was over 100 µM each time. Further, the TGI with OVCAR-8 ovarian and with HT29 colon was over 100 µM throughout.
